# Results published in PMC13095408, “DBeQ derivative targets vacuolar protein sorting 4 functions in cancer cells and suppresses tumor growth in mice” (The Journal of Pharmacology and Experimental Therapeutics, 2025).
# Experiments:
# recombinant human VCP [1] = molecular target: T1, recombinant human VCP (Rattus norvegicus, UniProt P46462); test: VCP ATPase activity, EnzChek Phosphate assay; type: biochemical
# T1 construct: His (N); host or cells: Escherichia coli BL21(DE3)
# Method: (§1) VPS4B and VCP ATPase activities were measured using the EnzChek Phosphate assay for the quantification of released phosphate. Assay buffers were based on literature precedents ([Cupido et al, 2019], [2021]) as follows: VPS4B buffer (20 mM HEPES-KOH, pH 7.4, 25 mM KOAc, 2 mM MgCl2, 5 mM (NH4)2SO4, 0.5 mM CaCl2, 2.5 mM DTT, 0.1 mg/mL BSA, 0.005% v/v Triton X-100), VCP buffer (20 mM HEPES-NaOH, pH 7.4, 20 mM NaCl, 10 mM MgCl2, 5 mM (NH4)2SO4, 0.5 mM CaCl2, 2.5 mM DTT, 0.1 mg/mL BSA, 0.005% v/v Triton X-100). In black clear-bottom 384-well plates, 22.5 μL of 5% DMSO or 40× test compounds diluted in the respective assay buffer was added to each well. ATPases were diluted to 1 μM in the respective buffers containing 2× EnzChek Phosphate assay coupling reagents of 400 μM MESG and 2 U of PNP, then 25 μL was added to each well. Plates were mixed at 1000 rpm for 30 minutes at RT while being protected from light. The reaction was initiated by adding 2.5 μL of 20 mM MgATP or water followed by mixing at 1200 rpm for 30 seconds at RT. Plates were measured at 360 nm using a CLARIOstar plate reader (BMG LABTECH) for 20 minutes at 37 °C. ATPase activity was calculated as the amount of phosphate released over a 5-minute interval under linear initial velocity conditions. The remaining ATPase activity was calculated by normalizing compound-treated activity values to the DMSO control. IC50 was calculated by fitting normalized values to a sigmoidal dose-response curve with Hill slope = −1 using Graph Pad Prism 10.0.
# (§2) To identify VPS4i, we developed enzyme- and cell-based VPS4 functional assays to serve as VPS4i-screening platforms. For the enzyme-based assay, we used the colorimetric EnzChek Phosphate assay that detects free phosphate with the advantage of continuous measurement of ATP hydrolysis over time. […] Due to the high sequence and structural similarity of AAA-ATPases, we also established a VCP ATPase assay to evaluate hit selectivity. […] For the cell-based assay, our approach was based on how VPS4 inhibition causes the accumulation of ESCRT-III ([Babst et al, 1998]; [Katoh et al, 2003]). We used an N-terminal GFP-tagged CHMP4B reporter system because it is the most abundant ESCRT-III subunit ([Katoh et al, 2004]; [Teis et al, 2008]). Our aim was to test compounds under short-term serum and amino acid starvation to stimulate ESCRT activity for easier detection of inhibitors ([Takahashi et al, 2018], [2019]). […] Overall, we established 2 systems for VPS4i screening, a VPS4B ATPase activity assay and a GFP-CHMP4B accumulation cell-based assay.
# recombinant human VCP [2] = molecular target: T2, recombinant human VCP; test: VCP ATPase activity, EnzChek Phosphate assay; type: biochemical; details: 0.5 μM enzyme
# T2 construct: His (N); host or cells: Escherichia coli BL21(DE3)
# T2 sequence (P46462 2-806 limits assumed): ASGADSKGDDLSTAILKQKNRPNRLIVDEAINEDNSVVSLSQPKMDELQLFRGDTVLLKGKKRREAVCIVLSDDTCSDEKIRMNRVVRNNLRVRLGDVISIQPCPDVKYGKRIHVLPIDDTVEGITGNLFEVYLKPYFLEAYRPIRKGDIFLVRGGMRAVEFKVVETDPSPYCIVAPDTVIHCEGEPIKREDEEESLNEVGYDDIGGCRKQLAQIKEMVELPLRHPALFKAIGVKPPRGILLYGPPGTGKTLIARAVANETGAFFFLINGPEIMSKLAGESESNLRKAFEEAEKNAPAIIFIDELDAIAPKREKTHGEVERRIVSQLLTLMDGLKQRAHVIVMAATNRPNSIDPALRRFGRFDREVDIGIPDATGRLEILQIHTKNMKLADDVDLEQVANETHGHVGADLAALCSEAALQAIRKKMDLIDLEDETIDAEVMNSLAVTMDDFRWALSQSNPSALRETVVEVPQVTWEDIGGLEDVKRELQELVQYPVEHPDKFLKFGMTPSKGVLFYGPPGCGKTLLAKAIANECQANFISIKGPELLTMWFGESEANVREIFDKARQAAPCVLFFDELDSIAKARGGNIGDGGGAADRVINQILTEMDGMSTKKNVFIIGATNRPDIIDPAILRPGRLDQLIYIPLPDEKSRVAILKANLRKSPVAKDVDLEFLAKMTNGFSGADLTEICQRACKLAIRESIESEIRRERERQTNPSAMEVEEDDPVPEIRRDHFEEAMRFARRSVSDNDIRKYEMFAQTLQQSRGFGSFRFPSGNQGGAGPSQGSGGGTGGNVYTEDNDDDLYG
# Method: as §1, §2
# [3] = tested on: GFP-CHMP4B-expressing U2OS cells; test: GFP-CHMP4B accumulation cell-based assay (high-content microscopy)
# Procedure, shortened: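 GFP-CHMP4B U2OS cells were cultured overnight, stained, then treated in SM with compounds (0.1% DMSO or 0.1% DMSO/0.1% ethanol vehicle final). High-content imaging used a 20× NA .70 objective at set intervals, ≥300 cells/well over 3 fields/well.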
# U2OS cells = test: Immunoblot analysis of VPS4- and VCP-mediated pathways (autophagy, ER stress, ERAD); type: cell-based
# Method: Whole-cell lysates were prepared in radio-immunoprecipitation buffer (25 mM Tris-HCl, pH 8.0, 150 mM NaCl, 1 mM EDTA, 1% v/v IGEPAL CA-630, 0.5% w/v sodium deoxycholate, and 1% v/v SDS) containing protease (1:250) and phosphatase inhibitor cocktails (1:100) then resolved via SDS-PAGE and probed with the indicated antibodies. Signals were acquired with the Odyssey CLx (LI-COR) for fluorescence or Odyssey XF (LI-COR) for chemiluminescence detection and visualized in Image Studio version 6 (LI-COR).
# VPS4 is essential for autophagy and loss of VPS4 function inhibits autophagic flux ([Takahashi et al, 2018]; [Zhen et al, 2019]). Meanwhile, VCP is required for endoplasmic reticulum-associated degradation (ERAD; [Rabinovich et al, 2002]) where VCP inhibition results in the accumulation of ubiquitinated proteins and induction of ER stress ([Weihl et al, 2006]; [Bastola et al, 2016]).
# [4] = Escalating dose MTD study; type: in vivo; details: daily doses increasing 50% each day from 5 mg/kg, B6 mice
# Method: (§3) All animal studies were performed in accordance with the guidelines of the Institutional Animal Care and Use Committee at the Penn State College of Medicine (IACUC # PRAMS201145989). To determine the maximum tolerated dose (MTD) of 4-107, escalating and acute dose studies were performed. The escalating MTD study used an intra-animal design where each mouse received daily doses of 4-107 that increased 50% each day from a starting dose of 5 mg/kg. Six female C57BL/6J (B6) (The Jackson Laboratory; 000664) were administered 4-107 either orally via oral gavage or via intraperitoneal injection with 3 mice per group. The acute MTD study had groups of mice receive daily consistent doses of 4-107 i.p. Here, B6 mice were administered 4-107 at either 5 (n = 4; 2 males [M], 2 females [F]), 10 (n = 4; 2 M, 2 F), 15 (n = 5; all M), or 20 mg/kg (n = 5; all M). In both studies, 4-107 dissolved in DMSO was mixed into 30% propylene glycol, 5% Tween 80, and 65% of 5% dextrose in water (PTD [vehicle]) with a final DMSO concentration of ≤ 3%. […] BCS was determined by posture and prominence of skeletal features upon visual inspection and palpation, where BCS < 2 indicated a hunched posture and emaciation. […] The MTD was determined as the highest dose of 4-107 administered without mice reaching the toxicity endpoints.
# Acute dose MTD study = details: both sexes, C57BL/6J, mouse, in vivo, ip, fixed daily doses 5, 10, 15, 20 mg/kg, B6 mice; read-out: acute dose MTD (tolerated dose)
# Method: as §3
# [5] = 5 μM DBeQ, 0.6 μM CB-5083, 1 μM 4-107, complete media
# T1 sequence (P46462 2-806 limits assumed): as above
structure (smiles),measurement,setting,value
"COc1cccc2c(NCc3ccccc3)nc(NCc3ccccc3)nc12 [Compound 4-107, N^2,N^4-dibenzyl-8-methoxyquinazoline-2,4-diamine]",VCP ATPase (% DMSO),"recombinant human VCP [1]; remaining ATPase activity, screened at 5 μM, mean ± SD, Table 2",68.48 ± 2.85 % DMSO
same,VCP ATPase (% DMSO),"recombinant human VCP [1]; screened at 5 µM, mean ± S.D., Supplemental Table 2",68.48 ± 2.02 % DMSO
same,IC50,recombinant human VCP [2],8.6 ± 3.9 µM
same,GFP-CHMP4B (% 4-107),"[3]; screened at 1 µM, mean ± S.D., Supplemental Table 2",100.00 ± 17.20 % 4-107
same,GFP-CHMP4B (% 4-107),"[3]; screened at 1 μM, starvation media, 1 hour, foci intensity per cell normalized to 4-107, mean ± SD, Table 1, listed as 1",100.00 ± 17.20 % 4-107
same,accumulation of K48-linked polyubiquitinated proteins,"U2OS cells; 0.6 μM CB-5083, 1 μM 4-107, complete media",did not induce ER stress or the accumulation of polyubiquitinated proteins
same,"VCP pathway (ubiquitinated proteins, ATF4, SQSTM1)","U2OS cells; 5 μM 4-107, 4 hours, complete media",VCP pathway perturbation
same,"ER stress (HSPA5, ATF4)",U2OS cells; [5],did not induce ER stress
same,"autophagy (SQSTM1, LC3-II)",U2OS cells; [5],inhibited autophagy over time
same,"doses exhibiting toxicity, intraperitoneal route",[4]; i.p.,above 25 mg/kg
same,"well tolerated dose, oral route","[4]; oral gavage, doses up to",approximately 90 mg/kg
same,MTD,Acute dose MTD study,5 mg/kg
